In patent US20060263805A1, “Diagnosing and treating potassium channel defects” (priority 2005, published 2006):

Experiments:
[1] = biological target: Fs1524 SUR2A NBD2; assay: NBD2 ATPase activity by spectrophotometry, Fs1524 mutant; type: biochemical
Protocol: (§1) Cloning of KATP channel subunits and purification of SUR2A ATPase. cDNAs encoding SUR2A and Kir6.2 were subcloned into the expression vector pcDNA3.1. PCR-based site-directed mutagenesis was carried out using primers incorporating identified mutations (QuickChange, Stratagene). The constructs were sequenced to verify mutations and rule out additional changes in sequence. […]
(§2) Enzymology and nucleotide binding. ATPase activity of purified NBD2 was measured in the presence of Mg^2+, as Pi generation detected spectrophotometrically at 360 nm with the EnzChek Phosphate Assay Kit or by monitoring conversion of [γ-^32P]ATP using thin layer chromatography and quantified it with Phosphorlmager and ImageQuant software (Molecular Dynamics) (Zingman et al., 2002, supra). […] Binding of fluorescent ATP analog TNP-ATP to purified NBD2 constructs was determined by fluorescence spectrophotometry (QuantaMaster, PTI) at excitation and emission wavelengths of 410 nm and 540 nm, respectively. […]
(§3) The ADP dissociation constant, KADP, was determined from spectrometric measurement of steady-state NBD2 ATPase activity at [ADP]=O with variable [ATP]. […]

[2] = biological target: wild-type SUR2A NBD2; assay: NBD2 ATPase activity by spectrophotometry, wild-type; type: biochemical
Protocol: as §1, §2, §3

[3] = biological target: A1513T SUR2A NBD2; assay: NBD2 ATPase activity by spectrophotometry, A1513T mutant; type: biochemical
Protocol: as §1, §2, §3

[4] = system: hypertensive wild-type mice; assay: Dobutamine challenge, left ventricular catheterization, hypertensive wild-type; type: in vivo; conditions: dobutamine 15 mg/kg i.p.
Protocol: Left Ventricular Catheterization. Invasive left ventricular pressure recordings were measured in vivo by a 1.4-Fr micropressure catheter (SPR-671, Millar Instruments) following carotid arterial cannulation and advancement across the aortic valve under 2,2,2 tri-bromoethanol ([…] i.p.; Sigma) anesthesia, before and after dobutamine (15 mg/kg i.p.) challenge. Left ventricular developed pressure was defined as the absolute difference between the maximum and minimum left ventricular pressure (mm Hg) and the relaxation time as the time from maximal rate of pressure decay to minimum left ventricular pressure (ms).

[5] = system: patient with atrial fibrillation; type: in vivo, human; conditions: for response of atrial fibrillation to antiarrhythmic medical therapy: patient
[6] = system: wild-type hearts; assay: Coronary flow in isolated perfused wild-type hearts; set-up: species or system mice
[7] = system: wild-type hearts; assay: Monophasic action potentials in Langendorff-perfused wild-type hearts under isoproterenol; set-up: species or system mice
Protocol: (§4) In situ aortic cannulation and Langendorff perfusion. Mice were anesthetized with intraperitoneal injection of 2,2,2 tri-bromoethanol (0.375 mg/g body weight; Sigma), intubated, ventilated, and the aortic root cannulated in situ (Hodgson et al., 2003, supra). Perfusion was sustained ex vivo on a Langendorff system at 90 cm H2O, with 37° C.-prewarmed and 100% O2-bubbled Tyrode solution (in mM: NaCl 137, KCl 5.4, CaCl2 2, MgCl2 1, HEPES 10, glucose 10; pH 7.4 with NaOH). Following 10-min equilibration, KCl was reduced to 2.7 mM and MgCl2 to 0.35 mM, with the atrioventricular node cauterized to allow ventricular pacing. Coronary flow was monitored with a T106 blood flow meter (Transonic Systems).
(§5) Electrogram and monophasic action potential recordings. Orthogonal electrogram signals were simultaneously recorded using four silver-silver chloride electrodes surrounding the perfused heart in a simulated “Einthoven” configuration, and signals amplified by an electrocardiographic amplifier (Gould Electronics). A catheter (NuMed) was placed in the left ventricular endocardium to pace the heart at twice diastolic threshold intensity with 2 ms pulse width and 100 ms cycle length using a pulse generator (A310 Accupulser, World Precision Instruments). Monophasic action potentials were continuously recorded from the left ventricle by a probe (EP Technologies) positioned on the epicardial surface, and amplified signals (IsoDam, World Precision Instruments) acquired at 11.8 kHz and stored for off-line digital analysis.

[8] = system: Kir6.2-KO hearts; assay: Monophasic action potentials in Langendorff-perfused Kir6.2-KO hearts under isoproterenol; set-up: species or system mice
Description: Kir6.2-knockout mice. Mice deficient in KATP channels were generated by targeted disruption of the KCNJ11 gene, which encodes the pore-forming Kir6.2 subunit of the channel complex (Miki et al., 1998, supra). Kir6.2-knockout mice were backcrossed for five generations into a C57BL/6 background. This investigation was approved by the Mayo Clinic Institutional Animal Care and Use Committee.
as §4, §5

[9] = system: wild-type mice; assay: Telemetric rhythm monitoring under isoproterenol challenge, wild-type mice; type: in vivo; conditions: isoproterenol 10 mg/kg injection
Description: (§6) KATP channel knockout mice were backcrossed for 5 generations to a C57BL/6 background. With approval of the Mayo Foundation Institutional Animal Care and Use Committee, the heart rate and electrocardiogram were continuously monitored in the conscious state. To this end, KATP channel knockout or 8- to 12-week old, age- and sex-matched C57BL/6 wild-type mice were implanted with telemetry devices (Data Sciences International) and leads tunneled subcutaneously under isoflurane anesthesia. Following a 2-week recovery from surgery, serial signals were acquired at 2 kHz before and during isoproterenol challenge.

[10] = system: Kir6.2 knockout mice; assay: Telemetric rhythm monitoring under isoproterenol challenge, KATP channel knockout mice; type: in vivo; conditions: isoproterenol 10 mg/kg injection; within 20 min
Description: as §6

[11] = system: Kir6.1-KO hearts; assay: Coronary flow in isolated perfused Kir6.1-KO hearts; set-up: species or system mice
Protocol: Coronary Flow. The aorta was cannulated in situ. […] Coronary flow was continuously measured with a T106 small animal blood flow meter (Transonic Systems Incorporated). The effect of recombinant murine TNFα was assessed at least 20 min after flow stabilization. […] Maximum vasodilation was defined as the peak increase in coronary flow observed in the wild-type in response to 10 μl of 1 mM adenosine after at least 10 min of return to baseline flow on TNFα washout.

[12] = system: Kir6.1-KO mice; conditions: mouse, in vivo, sc
Description: Kir6.1-deficient Mice. Mice deficient in vascular KATP channels (Kir6.1-KO), while maintaining normal KATP channel current in non-vascular tissues including the myocardium, were generated by targeted disruption of the KCNJ8 gene encoding the pore-forming Kir6.1 subunit and backcrossed for more than 5 generations to a C57BL/6 background (Miki et al., 2002, Nat. Med., 8:466-72). Six to eight week-old Kir6.1-KO mice were compared to age and sex matched wild-type littermate controls or to mice lacking non-vascular, including myocardial, KATP channels generated by targeted disruption of the KCNJ11 gene that encodes the Kir6.2 channel pore (Zingman et al., 2002, PNAS USA, 99:13278-83; Suzuki et al., 2001, Circ. Res., 88:570-7). […] Comparisons between groups were performed by analysis of variance, Student's t-tests, non-parametric or log-rank tests, using JMP software (SAS). Data are presented as mean±SEM; n refers to the sample size. P<0.05 was predetermined. All chemicals were obtained from Sigma. The Mayo Foundation Institutional Animal Care and Use Committee approved all experimental protocols.
Endotoxic Shock. The shock state of severe sepsis was modeled by administration of Escherichia coli LPS serotype 0111:B4 (Natanson et al., 1989, J. Exp. Med., 169:823-32; Suffredini et al., 1989, N. Engl. J. Med., 321:280-7). […]

[13] = system: hypertensive wild-type mice; assay: Mineralocorticoid/salt hypertension with pharmacologic intervention, wild-type mice; type: in vivo; conditions: verapamil 250 μg orally daily
Protocol: KATP Channel Knockout and Experimental Hypertension. KATP channel-deficient mice (Kir6.2-KO) were generated by targeted disruption of the KCNJ11 gene (Miki et al., 1998, PNAS USA, 95:10402-6) which encodes the pore-forming Kir6.2 channel subunit of myocardial but not renal or vascular KATP channels, and backcrossed for 5 generations to a C57BL/6 background. […] Water or salt water intake was measured weekly. All mice were given standard rodent chow, had similar awake non-fasting blood glucose levels measured by tail sampling (Table 2; OneTouch Ultra, Lifescan), were housed individually with a 12 h day/night cycle, and were observed daily until termination of the study at day 21. Following one-week of acclimatization, blood pressure was measured by automated tail-cuff recording (Columbus Instruments) in awake restrained wild-type and Kir6.2-KO mice, 2 weeks post-nephrectomy with or without mineralocorticoid/salt loading. […]
Gross Pathology and Tissue Fibrosis. […] Lung samples were dried at 65° C. for 48 h and reweighed with pulmonary congestion assessed by comparing wet to dry lung weight ratios. Interstitial fibrosis was quantified by computer analysis (MetaMorph, Visitron Universal Imaging) of 0.5-μm thick, paraffin-embedded, Masson's trichrome-stained sections. […] All quantification was performed blinded to the sample origin. […]

[14] = system: hypertensive Kir6.2-KO mice; conditions: verapamil 250 μg orally daily
Description: KATP Channel Knockout and Experimental Hypertension. KATP channel-deficient mice (Kir6.2-KO) were generated by targeted disruption of the KCNJ11 gene (Miki et al., 1998, PNAS USA, 95:10402-6) which encodes the pore-forming Kir6.2 channel subunit of myocardial but not renal or vascular KATP channels, and backcrossed for 5 generations to a C57BL/6 background. With approval of the Mayo Foundation Institutional Animal Care and Use Committee, Kir6.2-KO or 8- to 12-week old, age-matched, C57BL/6 male wild-type mice had left nephrectomy through a retroperitoneal flank excision under isoflurane-anesthesia to reduce clearance and mineralocorticoid-hypertension was induced for 21 days by subcutaneous implantation of a 50 mg 21-day-release deoxycorticosterone-acetate pellet (Innovative Research of America) and drinking water supplementation with 1% NaCl/0.2% KCl. Control wild-type or Kir6.2-KO mice underwent nephrectomy alone. Water or salt water intake was measured weekly. […] Following one-week of acclimatization, blood pressure was measured by automated tail-cuff recording (Columbus Instruments) in awake restrained wild-type and Kir6.2-KO mice, 2 weeks post-nephrectomy with or without mineralocorticoid/salt loading. Systolic blood pressure was digitally derived from ten sequential recordings.
Gross Pathology and Tissue Fibrosis. At 21 days, whole heart, left ventricle including septum, kidney and lungs were removed, rinsed, blotted dry, and weighed ex vivo. Lung samples were dried at 65° C. for 48 h and reweighed with pulmonary congestion assessed by comparing wet to dry lung weight ratios. Interstitial fibrosis was quantified by computer analysis (MetaMorph, Visitron Universal Imaging) of 0.5-μm thick, paraffin-embedded, Masson's trichrome-stained sections. Kidney or left ventricular collagen content was determined by assaying hydroxyproline content after overnight hydrolysis by 12 N HCl with samples run in duplicate against standard hydroxyproline (Sigma). All quantification was performed blinded to the sample origin.
Isolated Cardiomyocytes, Immunohistochemistry and Calcium Imaging. […]

[15] = system: wild-type and mutated SUR2A NBD2; assay: TNP-ATP binding to purified NBD2 constructs (fluorescence, Scatchard); conditions: Scatchard analysis
Protocol: Enzymology and nucleotide binding. ATPase activity of purified NBD2 was measured in the presence of Mg^2+, as Pi generation detected spectrophotometrically at 360 nm with the EnzChek Phosphate Assay Kit or by monitoring conversion of [γ-^32P]ATP using thin layer chromatography and quantified it with Phosphorlmager and ImageQuant software (Molecular Dynamics) (Zingman et al., 2002, supra). The initial kinetics of ATP hydrolysis was captured by stopped-flow spectroscopy with instantaneous mixing of purified polypeptide and substrate on an SX. 18MV spectrometer (Applied Photophysics). Binding of fluorescent ATP analog TNP-ATP to purified NBD2 constructs was determined by fluorescence spectrophotometry (QuantaMaster, PTI) at excitation and emission wavelengths of 410 nm and 540 nm, respectively.

[16] = ADP-dependent inhibition at 2 mM ATP, read-out: ADP-dissociation constant (KADP)
[17] = 0 ADP, creatine kinase 0.01 U/ml, creatine phosphate 5 mM

## Nc1ncnc2c1ncn2[C@@H]1O[C@H](COP(=O)(O)OP(=O)(O)O)[C@@H](O)[C@H]1O [ADP]
[1]; [16]
  Kd: 11 ± 1.5 µM
[2]; [16]
  Kd: 8.6 ± 0.3 µM
[3]; [16]
  Kd: 24.9 ± 5.6 µM

## Nc1ncnc2c1ncn2[C@@H]1O[C@H](COP(=O)(O)OP(=O)(O)OP(=O)(O)O)[C@@H](O)[C@H]1O [ATP]
[1]; [17]
  Michaelis-Menten constant of NBD2 ATPase (ATP dependence): 0.084 ± 0.010 mM
[2]; [17]
  Michaelis-Menten constant of NBD2 ATPase (ATP dependence): 0.11 ± 0.02 mM
[3]; [17]
  Michaelis-Menten constant of NBD2 ATPase (ATP dependence): 0.094 ± 0.013 mM

## CC(CCc1ccc(O)cc1)NCCc1ccc(O)c(O)c1 (stereo not drawn) [dobutamine]
[4]
  response to inotropic challenge: normal contractile response to the same stress challenge with no death

## O=C(NCC1CCCCN1)c1cc(OCC(F)(F)F)ccc1OCC(F)(F)F (stereo not drawn) [flecainide]
[5]
  response of atrial fibrillation to antiarrhythmic medical therapy: refractory and/or intolerant

## COc1ccc(Cl)cc1C(=O)NCCc1ccc(S(=O)(=O)NC(=O)NC2CCCCC2)cc1 [glyburide]
[6]; 10 min perfusion of 10 μM glyburide before TNFα
  TNFα-induced increase in coronary flow after glyburide pre-treatment: not observed

## CC(C)NCC(O)c1ccc(O)c(O)c1 (stereo not drawn) [isoproterenol]
[7]; 1 out of 6
  hearts with isoproterenol-induced afterdepolarizations complicated by triggered activity: 16%
[7]; 10-min perfusion, isoproterenol 1 mM, before 82±2
  monophasic action potential duration at 90% repolarization (APD90) after isoproterenol: 74 ± 2 ms
[7]; isoproterenol challenge
  early afterdepolarizations, share of action potentials examined: 1±1%
[5]; patient with ABCC9 mutation, before ablation
  atrial fibrillation under isoproterenol infusion: provoked
[8]; Kir6.2-KO hearts, 6 out of 8
  hearts with isoproterenol-induced afterdepolarizations complicated by triggered activity: 75%
[8]; Kir6.2-KO hearts, 10-min perfusion, isoproterenol 1 mM, before 79±3
  monophasic action potential duration at 90% repolarization (APD90) after isoproterenol: 80 ± 3 ms
[8]; Kir6.2-KO hearts, isoproterenol challenge
  early afterdepolarizations, share of action potentials examined: 97±2%
[8]; isoproterenol challenge
  fold higher risk of premature ventricular complexes, Kir6.2-KO versus wild-type: 16 fold
[9]
  cardiac rhythm after isoproterenol: maintained normal sinus rhythm
[10]
  knockouts with atrial fibrillation: 70%

## CC(C)NCC(O)c1ccc(NS(C)(=O)=O)cc1 (stereo not drawn) [sotalol]
[5]; human, in vivo
  complication of drug use: symptomatic bradycardia
[5]
  response of atrial fibrillation to antiarrhythmic medical therapy: refractory and/or intolerant

## COc1ccc(CCN(C)CCCC(C#N)(c2ccc(OC)c(OC)c2)C(C)C)cc1OC (stereo not drawn) [verapamil]
[11]; 1 μM verapamil after TNFα
  coronary vasodilation in TNFα-challenged hearts: reinstated coronary vasodilation
[12]
  median survival time: 24 h
[13]
  left ventricular hypertrophy: not affected
[14]; hypertensive Kir6.2-KO
  mortality: prevention of all mortality
  syndrome of heart failure including lung congestion: averted
[14]
  degree of systemic hypertension: did not affect

## TNFα
[11]; 4, 8 or 20 μg/l TNFα
  TNFα-induced increase in coronary flow: not observed
[6]; recombinant TNFα 4 μg/l
  coronary vasodilation (coronary flow) under TNFα: induced maximal coronary vasodilation

## TNP-ATP
[15]
  binding affinity of TNP-ATP, wild-type versus mutated NBD2: similar
